Measurements: patent publication US11573231B2, “Biomarker of aging” (Max-Planck-Gesellschaft zur Forderung der Wissenschaften …, priority 2017, dated 2023)

Test system: irg-1
Test: Pirg-1GFP translation suppression reporter in worms
Type: in vivo, C. elegans
Conditions: 3-hour treatment, 2 mg/ml
Source text: DIC microscopy was used to perform all the nucleolar imaging. Hypodermal cells of age-matched day 1 adults were imaged using 100× magnification with Olympus IX81. Freehand tool software from Fiji was used for nucleolar area quantification. FIB-1::GFP, HLH-30::GFP and N2+Pirg-1GFP worms were imaged using Olympus IX81 and Axio Imager Z1(Zeiss).

**Q.** What does the source list for `C[C@@H]1C[C@@H]([C@H](O)CC2CC(=O)NC(=O)C2)C(=O)[C@@H](C)C1` [cycloheximide]?
**A.** Pirg-1GFP reporter induction: induced; Pirg-1GFP reporter induction (listed as Cyclohexamide): strongly induced
